# Assay results as given in PubChem BioAssay (NCI).
#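 1) Cells in 96-well plates. 2) Compound, 48 h, 5 concentrations. 3) Linear interpolation between surrounding doses. 4) Unreached endpoint = highest concentration. Abbreviation: GI50, concentration required for 50% inhibition of growth. At the TGI there is no net growth.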 Where a SMILES comes first, the peptide text is derived from it. Bridges are numbered along the chain shown (N, C = ends). [ ]: non-standard residue; d: D form. aThr = C[C@H](O)[C@H](N)C(=O)O
# What was measured:
# Assay in all cases: NCI-60 cell line screen, 48 h
# LOX IMVI melanoma = system: LOX IMVI melanoma
# U251 CNS = system: U251 CNS
# MOLT-4 leukemia = system: MOLT-4 leukemia
# SR leukemia = system: SR leukemia
# HT29 colon = system: HT29 colon
# OVCAR-5 ovarian = system: OVCAR-5 ovarian
# 786-0 renal = system: 786-0 renal
# NCI/ADR-RES ovarian = system: NCI/ADR-RES ovarian
# MDA-MB-231 breast = system: MDA-MB-231 breast
# T-47D breast = system: T-47D breast
Compound,TGI (LOX IMVI melanoma) [µM],TGI (U251 CNS) [µM],TGI (MOLT-4 leukemia) [µM],TGI (SR leukemia) [µM],TGI (HT29 colon) [µM],TGI (OVCAR-5 ovarian) [µM],TGI (786-0 renal) [µM],GI50 (NCI/ADR-RES ovarian) [µM],TGI (NCI/ADR-RES ovarian) [µM],GI50 (LOX IMVI melanoma) [µM],GI50 (U251 CNS) [µM],GI50 (HT29 colon) [µM],GI50 (MDA-MB-231 breast) [µM],TGI (MDA-MB-231 breast) [µM],GI50 (OVCAR-5 ovarian) [µM],GI50 (T-47D breast) [µM],TGI (T-47D breast) [µM],GI50 (786-0 renal) [µM],GI50 (MOLT-4 leukemia) [µM]
N#Cc1ccc(Sc2nc3ccccc3[nH]2)cc1,> 100,> 100,> 100,> 100,> 100,> 100,> 100,,,,,,,,,,,,
CCOC(=O)C1(C)CCC(C(C(=O)O)C(=O)O)CC1=O (centres undefined),> 100,> 100,> 100,> 100,> 100,> 100,> 100,,,,,,,,,,,,
Nc1nc(=S)c2c(ncn2CCO)[nH]1,> 100,> 100,,,> 100,> 100,> 100,,,,,,,,,,,,
CCOC(=O)C1=C(NC)OCC1=O,> 100,> 100,,,> 100,> 100,> 100,,,,,,,,,,,,
Cc1cccc(Cn2cc(CO)c3cnccc32)c1,> 100,> 100,,,> 100,> 100,> 100,55.2,> 100,67.3,62.5,67.2,> 100,> 100,> 100,47.2,> 100,> 100,
c1ccc(C(c2ccccc2)c2ccccn2)cc1,> 100,> 100,,,> 100,> 100,> 100,,,,,,,,,,,,
CC(C)C[C@@H]1NC(=O)[C@@H]2CCCN2C(=O)[C@@H]2CCCN2C(=O)[C@H](CC(C)C)NC(=O)[C@H](CO)NC(=O)[C@H](CCCCN)NC(=O)[C@H]([C@H](C)O)NC(=O)[C@@H]2CSSC[C@@H](NC1=O)C(=O)N[C@@H](Cc1ccccc1)C(=O)N1CCC[C@H]1C(=O)N[C@@H](CC(=O)O)C(=O)NCC(=O)N[C@@H](CCCN=C(N)N)C(=O)N2 (cyclo(C[aThr]KSLPPL[dC]FPDGR); disulfide 1-9),> 50,> 50,> 50,,> 50,> 50,> 50,> 50,> 50,> 50,> 50,> 50,> 50,> 50,> 50,> 50,> 50,> 50,> 50
COc1cc(OC)c(OC)cc1/C=C/c1nc2ccccc2s1,> 100,> 100,> 100,,> 100,> 100,> 100,,> 100,,,,,> 100,,,> 100,,
COc1cc(/C=C/c2csnn2)cc(OC)c1OC,> 100,> 100,> 100,> 100,> 100,> 100,> 100,,,,,,,,,,,,
O=C1NC(=O)C2C(=O)NC(=O)C1C2Cc1ccco1 (centres undefined),> 100,,> 100,,> 100,> 100,> 100,,,,,,,,,,,,
CCCC(=O)CC(C)C(=O)C(=O)NC12CC3CC(CC(C3)C1)C2 (centres undefined),> 100,> 100,> 100,,> 100,> 100,> 100,,,,,,,,,,,,
N#CC1CC(c2ccccc2)Nc2cc(Cl)ccc2N1 (centres undefined),> 100,> 100,> 100,59.8,> 76.2,> 100,> 100,,,,,,,,,,,,
COc1ccc(/C=C2\C(=O)N(NC(C)=O)c3ccccc32)cc1,> 100,> 100,> 100,,> 100,> 100,> 100,,,,,,,,,,,,
O=C(O)CN(CCN(CC(=O)O)CC(=O)O)CC(=O)O.[Mn+2],> 100,> 100,> 100,,> 100,> 100,> 100,> 100,> 100,> 100,> 100,> 100,> 100,> 100,> 100,> 100,> 100,> 100,> 100
COc1cc(/C=C2\NC(=O)C(Cc3cc(OC)c(OC)c(C)c3OC)N(C(C)=O)C2=O)c(OC)c(C)c1OC (centres undefined),> 100,> 100,> 100,> 100,> 100,> 100,> 100,,,,,,,,,,,,
O=C1N[C@@H]2CCCC[C@@H]2C12CCCCC2,> 100,> 100,> 100,> 100,> 100,> 100,> 100,,,,,,,,,,,,

Compound,TGI (LOX IMVI melanoma) [µM],TGI (U251 CNS) [µM],TGI (MOLT-4 leukemia) [µM],TGI (SR leukemia) [µM],TGI (HT29 colon) [µM],TGI (OVCAR-5 ovarian) [µM],TGI (786-0 renal) [µM],GI50 (NCI/ADR-RES ovarian) [µM],TGI (NCI/ADR-RES ovarian) [µM],GI50 (LOX IMVI melanoma) [µM],GI50 (U251 CNS) [µM],GI50 (HT29 colon) [µM],GI50 (MDA-MB-231 breast) [µM],TGI (MDA-MB-231 breast) [µM],GI50 (OVCAR-5 ovarian) [µM],GI50 (T-47D breast) [µM],TGI (T-47D breast) [µM],GI50 (786-0 renal) [µM],GI50 (MOLT-4 leukemia) [µM]
CC(=O)OCC(=O)[C@@]1(O)CC[C@H]2[C@@H]3C[C@H](C)C4=CC(=O)C=C[C@]4(C)[C@@]3(F)[C@@H](O)C[C@@]21C,> 100,> 100,> 100,> 100,> 100,> 100,> 100,,,,,,,,,,,,
CC12OC(=O)C(C#N)C1(C)C1C(=O)CCCC12 (centres undefined),> 100,> 100,> 100,,,> 100,> 100,,,,,,,,,,,,
Cc1ccccc1C(CCCO)C(=O)O (centres undefined),> 100,> 100,> 100,,> 100,> 100,> 100,,,,,,,,,,,,
CC1NOC(=O)C1N=Nc1ccc(Cl)cc1Cl (centres undefined),66.1,38.5,50.7,71.9,> 100,> 100,41.9,,,,,,,,,,,,
CC(=O)[CH-]C(=O)c1ccccc1.[C-]#[O+].[C-]#[O+].[Ir],> 100,> 100,,,> 10,> 100,> 100,,,> 100,> 100,> 10,,,> 100,,,> 100,
COc1ccc(Nc2cnc3cc(N)cc(N)c3n2)cc1,40.5,35.5,> 100,,,,42.9,16.4,35,18.8,14.9,,10.5,26.2,,27,75.5,18.2,12.5
COc1ccc2nc(NC(=O)C(=O)CC(=O)c3ccc([N+](=O)[O-])cc3)sc2c1,,> 100,> 100,,> 100,> 100,> 100,,,,,,,,,,,,
ClCCOCCn1cnc2c(Cl)nc(Cl)nc21,20.1,24.7,> 100,,73.6,28.9,44,17.9,41.4,5.96,12.3,19.6,14.4,28.3,15,14.2,36.2,19.4,24.7
COc1cc(/C=C/c2cc(/C=C/c3ccc(O)c(OC)c3)n(C(=O)c3ccccc3Br)n2)ccc1O,,> 100,> 100,,,,> 100,3.72,> 100,,2.62,,3.59,> 100,,2.93,13.2,3.19,1.23
CN1CCN(c2c(F)cc(NC3=C(Cl)C(=O)c4ncccc4C3=O)cc2F)CC1,5.17,31.7,6.71,,22.5,28,3.44,17.9,49.3,2.15,15,4.67,3.47,12.3,14.8,1.95,5.04,1.84,1.79
Cc1ccc(S(=O)(=O)NCCCCC(N)C(=O)O)cc1 (centres undefined),,> 100,> 100,,> 100,> 100,> 100,,> 100,,,,,> 100,,,> 100,,
CC(=O)Nc1ccc(C2CC(c3ccc([N+](=O)[O-])cc3)=Nc3ccccc3S2=O)cc1 (centres undefined),31.8,,32.8,,59.1,> 100,22.6,,,,,,,,,,,,
C[C@H](C(=O)O)C(=O)NC(=O)N(Cc1ccccc1)N=O,> 100,> 100,> 100,,> 100,> 100,> 100,,,,,,,,,,,,
CC(=O)Oc1c(C(=O)[O-])cc(C(C)C)cc1C(C)C.CC(=O)Oc1c(C(=O)[O-])cc(C(C)C)cc1C(C)C.CC(=O)Oc1c(C(=O)[O-])cc(C(C)C)cc1C(C)C.CC(=O)Oc1c(C(=O)[O-])cc(C(C)C)cc1C(C)C.[Cu+2].[Cu+2],25.8,51.5,> 100,,> 100,> 100,> 100,,,2.74,19.9,37.5,33.9,> 100,57.2,52,> 100,63.6,74.9
O=C(CCCC(=O)Nc1ccc(Cl)cc1Cl)CC(=O)c1ccc2ccccc2c1,> 100,> 100,> 100,,> 100,> 100,> 100,,,,,,,,,,,,
COc1ccc(-c2nc3ccc(Cc4ccc5nc(-c6ccc(OC)cc6)[nH]c5c4)cc3[nH]2)cc1,0.217,0.162,1.29,,0.11,2.85,0.381,0.0354,1.84,0.0543,0.028,< 0.01,0.0476,0.586,0.182,,,0.0358,< 0.01
